The record followed here is patent publication US4877619A, “Liposomal vesicles for intraperitoneal administration of therapeutic agents” (priority 1987, dated 1989).

Where two headings read alike, the source gives them in different places.

For data set [1] the following is noted: rat, in vivo, ip. Here is the method: At the times indicated in the table, the animals were anesthetized, exsanguinated and the peritoneal cavities lavaged three time with 20 ml phosphate-buffered saline. The lavage fluid was pooled and centrifuged at low speed. "Peritoneal fluid" refers to fluid lavaged and pooled from the peritoneal cavity and contains small sized vesicles. "Peritoneal pellet" refers to the pelleted portion of the lavaged peritoneal fluid, and contains cellular matter (predominately peritoneal macrophage) and large vesicles. The remaining tissues were collected, washed, blotted, weighed and distributed into tubes for gamma counting.

The format of data set [2] is physicochemical. Here is the method: 3.9 ml of the Na-IBF solution is injected into each flask containing lipid film. The flasks are vortex-stirred for 40 to 60 minutes in a 65° C. water bath under nitrogen. (The nitrogen purge is first passed through a 0.22 micron filter.) To the contents of each flask is added sterile, pyrogen-free phosphate buffered saline, and the flasks are centrifuged for 6 to 10 minutes at 15,000 rpm. This washing procedure is repeated for a total of five times to remove unencapsulated Na-IBF. The contents of the flasks are then combined and PBS (5 mM PO4^3- in 0.15 N NaCl) is added to a total of 32 ml. The liposome suspension thus produced comprises ILDVs of about 1 micron or larger in size suspended in the PBS.

As for `O=C([O-])CN(CCN(CC(=O)[O-])CC(=O)[O-])CC(=O)[O-].[111In+3]` [^111 In-EDTA, Indium-III chelated to ethylenediamine tetracetic acid], the “Clearance after intraperitoneal injection” value in data set [1] is “rapid clearance from the peritoneal cavity and from the whole body”. Further, the Feces was 4.6 % Inj. Dose in data set [1] (1 h), “.02 % Inj. Dose” in data set [1] (2 h), 7.6 % Inj. Dose in data set [1] (6 h) and 16.83 % Inj. Dose in data set [1] (24 h). Besides, the TOTAL in data set [1] (1 h) was found to be 32.58 % Inj. Dose; in data set [1] (2 h) it was 76.73 % Inj. Dose; in data set [1] (6 h), 71.27 % Inj. Dose; in data set [1] (24 h) it was 33.91 % Inj. Dose. The Urine stood at 19 % Inj. Dose in data set [1] (1 h), 73 % Inj. Dose in data set [1] (2 h), 60.2 % Inj. Dose in data set [1] (6 h) and 14.05 % Inj. Dose in data set [1] (24 h).
On to Sodium Ibuprofenate, for which, in data set [2], the “Storage stability of liposome suspension” value is recorded as “storage-stable for a period of several months”.
